Experiments:
Test in all cases: Test B preemergence/postemergence greenhouse plant response rating 0 to 10
crabgrass = type: in vivo, Digitaria spp.; details: for Plant response rating, Crabgrass: 0 to 10 scale
In short: (§1)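 Postemergence treatment of plants two to eighteen cm tall ran alongside preemergence treatment of planted seed, each using compound in a non-phytotoxic solvent.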

cotton = type: in vivo, Gossypium hirsutum; details: for Plant response rating, Cotton: 0 to 10 scale
In short: as §1

giant foxtail = type: in vivo, Setaria faberii; details: for Plant response rating, Giant foxtail: 0 to 10 scale; for Plant response rating (0 to 10 scale), Giant foxtail: Rate 100 g/ha
In short: as §1

cheatgrass = type: in vivo, Bromus secalinus; details: for Plant response rating, Cheatgrass: 0 to 10 scale
In short: as §1

cocklebur = type: in vivo, Xanthium pensylvanicum; details: for Plant response rating, Cocklebur: 0 to 10 scale
In short: as §1

bedstraw = type: in vivo, Galium aparine; details: for Plant response rating, Bedstraw: 0 to 10 scale
In short: as §1

morningglory = type: in vivo, Ipomoea hederacea; details: for Plant response rating, Morningglory: 0 to 10 scale; for Plant response rating (0 to 10 scale), Morningglory: Rate 100 g/ha
In short: as §1

rape = type: in vivo, Brassica napus; details: for Plant response rating, Rape: 0 to 10 scale; for Plant response rating (0 to 10 scale), Rape: Rate 100 g/ha
In short: as §1

SMILES: Clc1ccc(-c2nc3n(c2Cl)CCC=C3)c(Cl)c1 [Compound 1]
- Plant response rating (0 to 10 scale), Crabgrass (crabgrass; POSTEMERGENCE, Rate 50 g/ha): 2
- Plant response rating, Crabgrass (crabgrass; POSTEMERGENCE, Rate 200 g/ha): 3
- Plant response rating, Crabgrass (crabgrass; PREEMERGENCE, Rate 50 g/ha): 0
- Plant response rating, Crabgrass (crabgrass; Rate 200 g/ha, PREEMERGENCE): 0
- Plant response rating (0 to 10 scale), Cotton (cotton; POSTEMERGENCE, Rate 50 g/ha): 7
- Plant response rating, Cotton (cotton; POSTEMERGENCE, Rate 200 g/ha): 8
- Plant response rating, Cotton (cotton; PREEMERGENCE, Rate 50 g/ha): 0
- Plant response rating, Cotton (cotton; Rate 200 g/ha, PREEMERGENCE): 0
- Plant response rating, Giant foxtail (giant foxtail; POSTEMERGENCE, Rate 50 g/ha): 3
- Plant response rating, Giant foxtail (giant foxtail; POSTEMERGENCE, Rate 200 g/ha): 3
- Plant response rating, Giant foxtail (giant foxtail; PREEMERGENCE, Rate 50 g/ha): 0
- Plant response rating, Giant foxtail (giant foxtail; Rate 200 g/ha, PREEMERGENCE): 0
- Plant response rating (0 to 10 scale), Cheatgrass (cheatgrass; POSTEMERGENCE, Rate 50 g/ha): 2
- Plant response rating, Cheatgrass (cheatgrass; POSTEMERGENCE, Rate 200 g/ha): 2
- Plant response rating, Cheatgrass (cheatgrass; PREEMERGENCE, Rate 50 g/ha): 0
- Plant response rating, Cheatgrass (cheatgrass; Rate 200 g/ha, PREEMERGENCE): 0
- Plant response rating (0 to 10 scale), Cocklebur (cocklebur; POSTEMERGENCE, Rate 50 g/ha): 4
- Plant response rating, Cocklebur (cocklebur; POSTEMERGENCE, Rate 200 g/ha): 4
- Plant response rating, Cocklebur (cocklebur; PREEMERGENCE, Rate 50 g/ha): 0
- Plant response rating, Cocklebur (cocklebur; Rate 200 g/ha, PREEMERGENCE): 0
- Plant response rating (0 to 10 scale), Bedstraw (bedstraw; POSTEMERGENCE, Rate 50 g/ha): 3
- Plant response rating, Bedstraw (bedstraw; POSTEMERGENCE, Rate 200 g/ha): 3
- Plant response rating, Bedstraw (bedstraw; PREEMERGENCE, Rate 50 g/ha): 0
- Plant response rating, Bedstraw (bedstraw; Rate 200 g/ha, PREEMERGENCE): 0
- Plant response rating, Morningglory (morningglory; POSTEMERGENCE, Rate 50 g/ha): 6
- Plant response rating, Morningglory (morningglory; POSTEMERGENCE, Rate 200 g/ha): 7
- Plant response rating, Morningglory (morningglory; PREEMERGENCE, Rate 50 g/ha): 0
- Plant response rating, Morningglory (morningglory; Rate 200 g/ha, PREEMERGENCE): 0
- Plant response rating, Rape (rape; POSTEMERGENCE, Rate 50 g/ha): 1
- Plant response rating, Rape (rape; POSTEMERGENCE, Rate 200 g/ha): 3
- Plant response rating, Rape (rape; PREEMERGENCE, Rate 50 g/ha): 0
- Plant response rating, Rape (rape; Rate 200 g/ha, PREEMERGENCE): 0

SMILES: Clc1ccc(-c2nc3n(c2Br)CCCC3)c(Cl)c1 [Compound 2]
- Plant response rating (0 to 10 scale), Crabgrass (crabgrass; POSTEMERGENCE, Rate 50 g/ha): 3
- Plant response rating (0 to 10 scale), Crabgrass (crabgrass; POSTEMERGENCE, Rate 100 g/ha): 3
- Plant response rating, Crabgrass (crabgrass; POSTEMERGENCE, Rate 200 g/ha): 7
- Plant response rating, Crabgrass (crabgrass; POSTEMERGENCE, Rate 400 g/ha): 7
- Plant response rating, Crabgrass (crabgrass; PREEMERGENCE, Rate 50 g/ha): 0
- Plant response rating (0 to 10 scale), Crabgrass (crabgrass; PREEMERGENCE, Rate 100 g/ha): 0
- Plant response rating, Crabgrass (crabgrass; Rate 200 g/ha, PREEMERGENCE): 0
- Plant response rating (0 to 10 scale), Cotton (cotton; POSTEMERGENCE, Rate 50 g/ha): 9
- Plant response rating (0 to 10 scale), Cotton (cotton; POSTEMERGENCE, Rate 100 g/ha): 10
- Plant response rating, Cotton (cotton; POSTEMERGENCE, Rate 200 g/ha): 9
- Plant response rating, Cotton (cotton; POSTEMERGENCE, Rate 400 g/ha): 10
- Plant response rating, Cotton (cotton; PREEMERGENCE, Rate 50 g/ha): 0
- Plant response rating (0 to 10 scale), Cotton (cotton; PREEMERGENCE, Rate 100 g/ha): 0
- Plant response rating, Cotton (cotton; PREEMERGENCE, Rate 400 g/ha): 2
- Plant response rating, Cotton (cotton; Rate 200 g/ha, PREEMERGENCE): 0
- Plant response rating, Giant foxtail (giant foxtail; POSTEMERGENCE, Rate 50 g/ha): 4
- Plant response rating (0 to 10 scale), Giant foxtail (giant foxtail; POSTEMERGENCE): 4
- Plant response rating, Giant foxtail (giant foxtail; POSTEMERGENCE, Rate 200 g/ha): 5
- Plant response rating, Giant foxtail (giant foxtail; POSTEMERGENCE, Rate 400 g/ha): 6
- Plant response rating, Giant foxtail (giant foxtail; PREEMERGENCE, Rate 50 g/ha): 0
- Plant response rating (0 to 10 scale), Giant foxtail (giant foxtail; PREEMERGENCE): 0
- Plant response rating, Giant foxtail (giant foxtail; PREEMERGENCE, Rate 400 g/ha): 7
- Plant response rating, Giant foxtail (giant foxtail; Rate 200 g/ha, PREEMERGENCE): 0
- Plant response rating (0 to 10 scale), Cheatgrass (cheatgrass; POSTEMERGENCE, Rate 50 g/ha): 2
- Plant response rating (0 to 10 scale), Cheatgrass (cheatgrass; POSTEMERGENCE, Rate 100 g/ha): 2
- Plant response rating, Cheatgrass (cheatgrass; POSTEMERGENCE, Rate 200 g/ha): 3
- Plant response rating, Cheatgrass (cheatgrass; POSTEMERGENCE, Rate 400 g/ha): 4
- Plant response rating, Cheatgrass (cheatgrass; PREEMERGENCE, Rate 50 g/ha): 0
- Plant response rating (0 to 10 scale), Cheatgrass (cheatgrass; PREEMERGENCE, Rate 100 g/ha): 0
- Plant response rating, Cheatgrass (cheatgrass; PREEMERGENCE, Rate 400 g/ha): 0
- Plant response rating, Cheatgrass (cheatgrass; Rate 200 g/ha, PREEMERGENCE): 0
- Plant response rating (0 to 10 scale), Cocklebur (cocklebur; POSTEMERGENCE, Rate 50 g/ha): 7
- Plant response rating (0 to 10 scale), Cocklebur (cocklebur; POSTEMERGENCE, Rate 100 g/ha): 7
- Plant response rating, Cocklebur (cocklebur; POSTEMERGENCE, Rate 200 g/ha): 6
- Plant response rating, Cocklebur (cocklebur; POSTEMERGENCE, Rate 400 g/ha): 8
- Plant response rating, Cocklebur (cocklebur; PREEMERGENCE, Rate 50 g/ha): 0
- Plant response rating (0 to 10 scale), Cocklebur (cocklebur; PREEMERGENCE, Rate 100 g/ha): 0
- Plant response rating, Cocklebur (cocklebur; PREEMERGENCE, Rate 400 g/ha): 0
- Plant response rating, Cocklebur (cocklebur; Rate 200 g/ha, PREEMERGENCE): 0
- Plant response rating (0 to 10 scale), Bedstraw (bedstraw; POSTEMERGENCE, Rate 50 g/ha): 3
- Plant response rating (0 to 10 scale), Bedstraw (bedstraw; POSTEMERGENCE, Rate 100 g/ha): 3
- Plant response rating, Bedstraw (bedstraw; POSTEMERGENCE, Rate 200 g/ha): 4
- Plant response rating, Bedstraw (bedstraw; POSTEMERGENCE, Rate 400 g/ha): 3
- Plant response rating, Bedstraw (bedstraw; PREEMERGENCE, Rate 50 g/ha): 0
- Plant response rating (0 to 10 scale), Bedstraw (bedstraw; PREEMERGENCE, Rate 100 g/ha): 0
- Plant response rating, Bedstraw (bedstraw; PREEMERGENCE, Rate 400 g/ha): 0
- Plant response rating, Bedstraw (bedstraw; Rate 200 g/ha, PREEMERGENCE): 3
- Plant response rating, Morningglory (morningglory; POSTEMERGENCE, Rate 50 g/ha): 9
- Plant response rating (0 to 10 scale), Morningglory (morningglory; POSTEMERGENCE): 9
- Plant response rating, Morningglory (morningglory; POSTEMERGENCE, Rate 200 g/ha): 9
- Plant response rating, Morningglory (morningglory; POSTEMERGENCE, Rate 400 g/ha): 9
- Plant response rating, Morningglory (morningglory; PREEMERGENCE, Rate 50 g/ha): 0
- Plant response rating (0 to 10 scale), Morningglory (morningglory; PREEMERGENCE): 0
- Plant response rating, Morningglory (morningglory; PREEMERGENCE, Rate 400 g/ha): 2
- Plant response rating, Morningglory (morningglory; Rate 200 g/ha, PREEMERGENCE): 0
- Plant response rating, Rape (rape; POSTEMERGENCE, Rate 50 g/ha): 5
- Plant response rating (0 to 10 scale), Rape (rape; POSTEMERGENCE): 3
- Plant response rating, Rape (rape; POSTEMERGENCE, Rate 200 g/ha): 9
- Plant response rating, Rape (rape; POSTEMERGENCE, Rate 400 g/ha): 9
- Plant response rating, Rape (rape; PREEMERGENCE, Rate 50 g/ha): 0
- Plant response rating (0 to 10 scale), Rape (rape; PREEMERGENCE): 0
- Plant response rating, Rape (rape; PREEMERGENCE, Rate 400 g/ha): 0
- Plant response rating, Rape (rape; Rate 200 g/ha, PREEMERGENCE): 0

SMILES: CC(C)Oc1cc(-c2nn3c(c2Cl)CCCC3)c(F)cc1Cl [Compound 21]
- Plant response rating (0 to 10 scale), Crabgrass (crabgrass; POSTEMERGENCE, Rate 50 g/ha): 2
- Plant response rating, Crabgrass (crabgrass; POSTEMERGENCE, Rate 200 g/ha): 6
- Plant response rating, Crabgrass (crabgrass; PREEMERGENCE, Rate 50 g/ha): 2
- Plant response rating, Crabgrass (crabgrass; Rate 200 g/ha, PREEMERGENCE): 8
- Plant response rating (0 to 10 scale), Cotton (cotton; POSTEMERGENCE, Rate 50 g/ha): 10
- Plant response rating, Cotton (cotton; POSTEMERGENCE, Rate 200 g/ha): 10
- Plant response rating, Cotton (cotton; PREEMERGENCE, Rate 50 g/ha): 2
- Plant response rating, Cotton (cotton; Rate 200 g/ha, PREEMERGENCE): 7
- Plant response rating, Giant foxtail (giant foxtail; POSTEMERGENCE, Rate 50 g/ha): 4
- Plant response rating, Giant foxtail (giant foxtail; POSTEMERGENCE, Rate 200 g/ha): 7
- Plant response rating, Giant foxtail (giant foxtail; PREEMERGENCE, Rate 50 g/ha): 5
- Plant response rating, Giant foxtail (giant foxtail; Rate 200 g/ha, PREEMERGENCE): 9
- Plant response rating (0 to 10 scale), Cheatgrass (cheatgrass; POSTEMERGENCE, Rate 50 g/ha): 5
- Plant response rating, Cheatgrass (cheatgrass; POSTEMERGENCE, Rate 200 g/ha): 8
- Plant response rating, Cheatgrass (cheatgrass; PREEMERGENCE, Rate 50 g/ha): 4
- Plant response rating, Cheatgrass (cheatgrass; Rate 200 g/ha, PREEMERGENCE): 6
- Plant response rating (0 to 10 scale), Cocklebur (cocklebur; POSTEMERGENCE, Rate 50 g/ha): 8
- Plant response rating, Cocklebur (cocklebur; POSTEMERGENCE, Rate 200 g/ha): 10
- Plant response rating, Cocklebur (cocklebur; PREEMERGENCE, Rate 50 g/ha): 2
- Plant response rating, Cocklebur (cocklebur; Rate 200 g/ha, PREEMERGENCE): 2
- Plant response rating (0 to 10 scale), Bedstraw (bedstraw; POSTEMERGENCE, Rate 50 g/ha): 6
- Plant response rating, Bedstraw (bedstraw; POSTEMERGENCE, Rate 200 g/ha): 9
- Plant response rating, Bedstraw (bedstraw; PREEMERGENCE, Rate 50 g/ha): 2
- Plant response rating, Bedstraw (bedstraw; Rate 200 g/ha, PREEMERGENCE): 9
- Plant response rating, Morningglory (morningglory; POSTEMERGENCE, Rate 50 g/ha): 10
- Plant response rating, Morningglory (morningglory; POSTEMERGENCE, Rate 200 g/ha): 9
- Plant response rating, Morningglory (morningglory; PREEMERGENCE, Rate 50 g/ha): 2
- Plant response rating, Morningglory (morningglory; Rate 200 g/ha, PREEMERGENCE): 2
- Plant response rating, Rape (rape; POSTEMERGENCE, Rate 50 g/ha): 6
- Plant response rating, Rape (rape; POSTEMERGENCE, Rate 200 g/ha): 10
- Plant response rating, Rape (rape; PREEMERGENCE, Rate 50 g/ha): 3
- Plant response rating, Rape (rape; Rate 200 g/ha, PREEMERGENCE): 8

Source: US6358885B1, “Substituted phenylheterocyclic herbicides” (Mississippi State University, priority 1992, dated 2002)
